For data set [1], the system named is IgE. In words: ED50 for inhibition of IgE calculated from the examples. The data set is classed as in vivo, mouse. The following applies: dose to achieve 50% inhibition of IgE. How it is done: From the data in the above examples, the effective dose of each prostaglandin to achieve 50% inhibition of IgE (ED50) was calculated.
The test system of data set [2] is IgG3. The experiment in a line: Serum IgG3 in anti-IgD stimulated mice (two site sandwich ELISA, Assay D). The data set is classed as in vivo, mouse (Balb/c female). The following applies: 20 μg days 3 and 4; for inhibition of IgG3: Example 25; for IgG3 ± SD: Table 14, day 8 (control 1538). A general note: An ELISA detects its analyte on a solid surface through an enzyme-linked reagent.

Data set [3] is described as follows: Diarrheal effects in rats. The conditions noted are these: rat, in vivo, po.
Protocol: Briefly, adult Charles River male rats weighing 210-230 g were individually housed and fasted with water available ad libitum for 24 hours prior to the test. The animals (N=6-12) received logarithmically graded prostaglandin doses orally. Immediately after administration, the animals were returned to their cages, and diarrhea, if any, was assessed on an all or none basis for 8 hours after drug treatment. The ED50 and relative potency values were calculated by the logistic method of Berkson.
Data set [4] relates to IgG2a. In words: Serum IgG2a in anti-IgD stimulated mice (two site sandwich ELISA, Assay C). The format is in vivo, mouse (Balb/c female). The conditions noted are these: 20 μg days 3 and 4; for inhibition of IgG2a: Example 25; for IgG2a ± SD: Table 14, day 8 (control 1246). As to the method: (§1) Sera from mice treated with compounds in accordance with the method of the invention are analyzed for levels of IgG1, IgG2a, IgG3, and IgM.
Measurement of mouse IgG2a by a two site sandwich ELISA is performed in substantial accordance with the teaching of Assay B except with the following changes. NuncImmulon II plates are used in this assay. The IgG2a standard is purchased from Southern Biotech. The standard curve is linear between 4-250 ng/ml. Serum containing IgG2a is diluted 1/6400 to 1/1,000,000. About a 1/6,000 dilution of goat anti mouse IgG2a (Southern Biotech) conjugated to alkaline phosphatase is used.
(§2) Sera from the mice described in Example 13 are analyzed for the levels of IgG1, IgG2a, and IgG3 by Assays B, C, and D, respectively.
(§3) Two groups of 4 Balb/c female mice per group are injected with both 100 μg FF1-4D5 antibody and 100 μg H∂A1 antibody. One of these groups is a stimulated control designated Group B. On day 3 and 4, the other group is injected with 40 μg (±) methyl 11α, 16-dihydroxy-1-methyl-9-oxoprosta-4Z,13E-dien-1-oate. Another group is injected with only PBS as an unstimulated control (Group A). On day -1 and 8, 50-100 μl of serum is recovered and analyzed for IgE, IgG1 and IgG2a by Assays A, B, and C, respectively.
(§4) 3 groups of 4 Balb/c female mice per group are injected with both 100 μg FF1-4D5 antibody and 100 μg H∂A1 antibody on day 0. Group A is given no further treatment. On day 3 and 4, one group of mice is injected with 20 μg (±) methyl 2-[2-[3R-3α-hydroxy-2β-(4-hydroxy-4-methyl-1E-octenyl-5-oxo-1α-cyclopentyl]-methyl]cyclopropanebutanoate (Group B) and another group with 20 μg (±) methyl 2-[2-[3R-3α-hydroxy-2β-(4-hydroxy-4-methyl-1E-octenyl)-5-oxo-1α-cyclopentyl]ethyl]cyclopropanepropanoate (Group C) as in Example 13. On day -1 and 8, 50-100 μl of serum is recovered and analyzed for IgE, IgG1, IgG2a and IgG3 by Assays A, B, C and D, respectively. The selectivity of inhibition of IgE is shown in Table 12.
(§5) Three groups of 5 Balb/c female mice per group are injected with both 100 μg FF1-4D5 antibody and 100 μg H∂A1 antibody on day 0. Group A is a control with no further treatment. On day 3 and 4, the mice are injected with 20 μg (±) methyl 11α,16-dihydroxy-4,4,16-trimethyl-9-oxoprosta-13E-en-1-oate (Group B) or 20 μg (±) methyl 11α,16-dihydroxy-16-methyl-9-oxoprosta-3,5Z,13E-trien-1-oate (Group C) as in Example 13. On day -1 and 8, […] of serum is recovered and analyzed for IgE, IgG1, IgG2a, IgG3 and IgM by Assays A, B, C, D and E, respectively.

The test system of data set [5] is IgM. The experiment in a line: Serum IgM in anti-IgD stimulated mice (two site sandwich ELISA, Assay E). The format is in vivo, mouse (Balb/c female). The conditions noted are these: 20 μg days 3 and 4; for inhibition of IgM: Example 25; for IgM ± SD: Table 14, day 8 (control 4147). As to the method:
as §1
Measurement of mouse IgM by a two site sandwich ELISA is performed in substantial accordance with the teachings of Assay B except for the following changes. About 250 ng of rabbit anti-mouse IgM (Zymed Laboratories) is used to coat a NuncImmulon 96 well plate. The IgM standard is purchased from Southern Biotech. The standard curve is linear between 8-500 ng/ml. Serum containing IgM is diluted 1/4,000 to 1/60,000. About a 1/10,000 dilution of goat anti mouse IgM conjugated to horse radish peroxidase is used as a combined primary antibody and developing reagent. 100 μl is added to each well and the plate is incubated at about 4° C. overnight. The colorimetric substrate is prepared and used as described in Assay A.
Two groups of 4 Balb/c female mice per group are injected with both 100 μg FF1-4D5 antibody and 100 μg H∂Al antibody. On day 3 and 4 the mice are injected with PBS (Group A) or 20 μg (±) methyl 11α,16-dihydroxy-16-ethyl-9-oxoprosta-5Z,13E-dien-1-oate (Group B) at 7 a.m., 1 p.m. and 7 p.m. in substantial accordance with the teaching of Example 13. On day -1, 7, 8, 9 and 11, 50-100 μl of serum is recovered and analyzed for IgE by Assay A and for IgM by Assay E. The results are shown in Table 6.
as §5

The test system of data set [6] is IgG1. The experiment in a line: Serum IgG1 in anti-IgD stimulated mice (two site sandwich ELISA, Assay B). The conditions noted are these: 20 μg days 3 and 4; for inhibition of IgG1: Example 25; for IgG1 ± SD: Table 14, day 8 (control 21703). The data set is classed as in vivo, mouse (Balb/c female). As to the method: as §1
Mouse IgG1 measurement by a two site sandwich ELISA is as follows. About 5 μg of rabbit anti mouse IgG (Organon-Teknika-Cappel, Malvern, Pa.) is attached to the wells of a NuncImmulon 96 well plate and IgG1 levels are determined in substantial accordance with Assay A except with the following changes. The IgG1 standard is purchased from Southern BioTech, Birmingham, Ala., and stored at 10 μg/ml in 2% NBS in PBS at 4° C. The standard curve is prepared by diluting the mouse IgG1 standard in 0.05% Tween-80 in PBS, and is linear between 3.9 and 250 ng/ml. Serum containing IgG1 is diluted 1/10,000 to 1/1,000,000 in 0.05% Tween 80-PBS, to place the measurement within the standard curve. Standard IgG1 (or diluted serum) is incubated at about 37° C. for 1 hour and the plates are washed with 0.05% Tween 80-PBS as described in Assay A. About a 1/3,000 dilution of Goat anti mouse IgG1 (Southern Biotech, Birmingham, Ala.) conjugated to alkaline phosphatase in 0.05% Tween 80-PBS is added to each well and incubated at about 37° C. for 60 minutes. The plate is washed and colorimetric substrate, prepared as described by the manufacturer (Alkaline Phosphatase Substrate System, KPL, Gaithersburg, Md.), is added and optical density and data analysis is performed in the same manner as Assay A.
as §2, §3, §4, §5

For the compound `CCCCC(C)(O)C/C=C/[C@H]1[C@H](O)CC(=O)[C@@H]1CCCC(C)(C)CCC(=O)OC` (mixture of isomers) [(±) methyl 11α,16-dihydroxy-4,4,16-trimethyl-9-oxoprost-13E-en-1-oate], the “ED50 IgE Inhibition” value in data set [1] is on record as 1.5 μg/mouse/TID. Besides, in data set [2], the “inhibition of IgG3” value was “not IgG1, IgG2a, IgG3 and IgM”; the “IgG3 ± SD” value was determined as 2103 ± 616 µg/mL. The TD50 at 8 h in data set [3] came to 0.185 mg/kg. In data set [4], the “inhibition of IgG2a” value is “not IgG1, IgG2a, IgG3 and IgM”; the “IgG2a ± SD” value is 1019 ± 278 µg/mL. In addition, in data set [5], the “inhibition of IgM” value was “not IgG1, IgG2a, IgG3 and IgM”; the “IgM ± SD” value was determined as 9792 ± 984 µg/mL. In data set [6], the “inhibition of IgG1” value is “not IgG1, IgG2a, IgG3 and IgM”; the “IgG1 ± SD” value was 22555 ± 5821 µg/mL.

For `CCCCC(C)(O)C/C=C/[C@H]1[C@H](O)CC(=O)[C@@H]1C/C=C\C=CCC(=O)OC` (relative stereo) [(±) methyl 11α,16-dihydroxy-16-methyl-9-oxoprosta-3,5Z,13-trien-1-oate], the “ED50 IgE Inhibition” value in data set [1] is 6.5 μg/mouse/TID. Besides, in data set [2], the “inhibition of IgG3” value was “not IgG1, IgG2a, IgG3 and IgM”; the “IgG3 ± SD” value stood at 1709 ± 429 µg/mL. The TD50 at 8 h in data set [3] is 0.57 mg/kg. In addition, in data set [4], the “inhibition of IgG2a” value was “not IgG1, IgG2a, IgG3 and IgM”; the “IgG2a ± SD” value worked out at 1202 ± 338 µg/mL. Besides, in data set [5], the “inhibition of IgM” value was “not IgG1, IgG2a, IgG3 and IgM”; the “IgM ± SD” value came to 7708 µg/mL. Besides, in data set [6], the “inhibition of IgG1” value was “not IgG1, IgG2a, IgG3 and IgM”; the “IgG1 ± SD” value was 18320 ± 4695 µg/mL.

The values are drawn from patent publication US5157052A, “Method for inhibiting IgE production” (priority 1990, dated 1992).
